Here are results for six molecules from PMC9400670, “Establishing the selective phospholipid membrane coordination, permeation and lysis properties for a series of ‘druggable’ supramolecular self-associating antimicrobial amphiphiles” (Chemical Science, 2022).

Data set [1] can be described thus: Critical micelle concentration from surface tension measurements (pendant drop). In kind it is physicochemical. To be noted: 19 : 1 H2O : EtOH solution at 298 K. The text has this: Section 2: General Methods
General remarks: A positive pressure of nitrogen and oven dried glassware were used for all reactions.
All solvents and starting materials were purchased from known chemical suppliers or available stores and used without any further purification unless specifically stipulated. The NMR spectra were obtained using a Burker AV2 400 MHz, AVNEO 400 MHz or Avance III […] spectrometer. The data was processed using ACD Labs or MestreNova software. NMR Chemical shift values are reported in parts per million (ppm) and calibrated to the centre of the residual solvent peak set (s = singlet, br = broad, d = doublet, t = triplet, q = quartet, m = multiplet). Fluorescence and fluorescence polarisation measurements were conducted using a Clariostar plate reader and analysed using MARS data analysis […]
Tensiometry Studies: All the samples were prepared in an EtOH:H2O (1:19) solution. All samples underwent an annealing process in which the various solutions were heated to approximately 40 °C before being allowed to cool to room temperature, allowing each sample to reach a thermodynamic minimum. All samples were prepared through serial dilution of the most concentrated sample. Three surface tension measurements were obtained for each sample at a given concentration, using the […]
pendant drop method. […]
Data

Data set [2] has as its system calcein loaded phospholipid vesicles (PC, PG, PE-PG mix, E. coli total, E. coli polar). Kind of data set: Synthetic phospholipid vesicle lysis (calcein leakage) assay. Particulars: SSA 1.5 mM, in words; for time dependence of vesicle lysis: 15 min vs 30 s, E. coli-based vesicles. Here is the method: Here, samples of phospholipid vesicles containing the fluorescent dye calcein were prepared. At internal vesicle concentrations, this dye undergoes self-quenching. […] The increase in fluorescence output is proportional to the % of vesicle lysis observed upon the addition of SSAs 1–14, when calibrated against a solution of vesicles know to have undergone 100% lysis, see Fig. 5.
Fig. 5 The average (n = 3) percentage lysis (%) of vesicles (30 μM) composed of five different lipid compositions (Table 2), with an internal calcein concentration of 70 mM at 298 K. The % vesicle lysis was calculated through observation of increasing fluorescence emission (λem = 515 nm), following the addition of SSAs […] (1.5 mM) in a H2O/EtOH 95 : 5 solution after: (a) 30 s and; (b) 15 min. Triton X-100 (1%) was used as a positive control for 100% vesicle lysis. Data normalised to the addition of a H2O/EtOH 95 : 5 solution. Red = PC, yellow = PG, green = PE-PG mix, blue = E. coli total, pink = E. coli polar. Error = standard error.
Section 2: General Methods […]
Preparation of vesicles: All lipids were purchased as powder stocks from Avanti Polar Lipids. Lipid vesicles were prepared according to standard procedures.1 Each phospholipid was dissolved in chloroform (~ 10 mL) and the solvent was removed under reduced pressure. The thin film of dried lipid was further dried in vacuo for at least 2 hours. Lipid films were resuspended in the desired buffer and subjected to 9 freeze-thaw cycles in liquid nitrogen and extruded 20 times through a 200 nm […]
Preparation of calcein loaded vesicles: Lipid films were resuspended in buffer A (70 mM calcein, 10 mM TRIS pH 8.5, 0.5 mM EDTA, 110 mM NaCl, pH adjusted to 6-7) and subjected to 9 freeze-thaw cycles in liquid nitrogen and extruded 20 times through a 200 nm polycarbonate membrane. The suspension was run down a size exclusion column packed with sephadex G-50 using buffer B (10 mM TRIS pH 8.5, 0.5 mM EDTA, 110 mM NaCl). The hydrodynamic dimeter of the lipids was monitored using an Anton Paar LitesizerTM 500 to ensure the separation of free and entrapped calcein.
Phospholipid concentration was adjusted to 30 µM for vesicle leakage experiments.
Vesicle leakage assay: Black bottom 96-well plates were prepared with the appropriate lipid solution (100 µL, 30 µM) and desired SSA solution (100 µL) prepared in H2O/EtOH 95: 5. A solution of 1 % Triton X-100 (16) was used for a 100 % lysis control and a H2O/EtOH 95: 5 solution was used as a 0 % lysis control. Fluorescent measurements were taken at 25 °C using an excitation value of 495 nm and an optimised gain of 983. Data were acquired in endpoint mode. All experiments were repeated in triplicate to ensure experimental reproducibility. […]
Data

Regarding `Cc1ccc2nc(-c3ccc(NC(=O)NCCC(=O)O)cc3)sc2c1` [SSA 9], the CMC in data set [1] (unit printed in Figs S37-S40, not in Table 3, listed as 9) stood at 1.9 mM; in data set [1] (unit printed in Figs S37-S40, not in Table 3, listed as compound 9), 1.92 mM. Moreover, in data set [2], the “time dependence of vesicle lysis” value is listed as “time dependent enhancement of vesicle lysis”.

`O=C(NCS(=O)(=O)O)Nc1ccc(-c2nc3ccccc3s2)cc1` [SSA 8]: the CMC in data set [1] (unit printed in Figs S37-S40, not in Table 3, listed as 8) came out at 5.2 mM; in data set [1] (unit printed in Figs S37-S40, not in Table 3, listed as compound 8) it was 5.16 mM. In addition, the “time dependence of vesicle lysis” value in data set [2] is recorded as “time dependent enhancement of vesicle lysis”.

For the molecule `Cc1ccc2nc(-c3ccc(NC(=O)NCS(=O)(=O)O)cc3)sc2c1` [SSA 6], the “time dependence of vesicle lysis” value in data set [2] is listed as “time dependent enhancement of vesicle lysis”.

For `Cc1ccc2nc(-c3ccc(NC(=O)NCC(=O)O)cc3)sc2c1` [SSA 11], the CMC in data set [1] (unit printed in Figs S37-S40, not in Table 3, listed as 11) is given as 3.0 mM; in data set [1] (unit printed in Figs S37-S40, not in Table 3, listed as compound 11), 3.03 mM. The vesicle lysis activity entry in data set [2] (thirty seconds after SSA addition, five vesicle types) is reported as “general surfactant type properties, similar to that of Triton”.

As to `Cc1ccc2nc(-c3ccc(NC(=S)NCS(=O)(=O)O)cc3)sc2c1` [SSA 12], the CMC in data set [1] (unit given in Figs S37-S40, not in Table 3) was determined as 4.6 mM.

Take `Cc1ccc2nc(-c3ccc(NC(=O)NCCCS(=O)(=O)O)cc3)sc2c1` [SSA 10]: the CMC in data set [1] (unit printed in Figs S37-S40, not in Table 3, listed as 10) came to 14.8 mM; in data set [1] (unit printed in Figs S37-S40, not in Table 3, listed as compound 10) it was 14.77 mM. Moreover, the “time dependence of vesicle lysis” value in data set [2] was “time dependent enhancement of vesicle lysis”.
